What all share (assay): DTP human tumour cell line panel, 48 h
Assay [1] concerns A549.
Assay [2] relates to BT-549.
In assay [3] the test system is CAKI-1.
For assay [4], the system named is COLO 205.
In assay [5] the test system is EKVX.
Assay [6] relates to HCC 2998.
In assay [7] the test system is HCT-15.
The test system of assay [8] is HOP-62.
For assay [9], the system named is HOP-92.
Assay [10] relates to IGROV-1.
The test system of assay [11] is K562.
For assay [12], the system named is LOX IMVI.
Assay [13] deals with NCI-H226.
The subject of assay [14] is NCI-H522.
The subject of assay [15] is RPMI-8226.
For assay [16], the system named is SK-MEL-28.
In assay [17] the test system is SK-MEL-5.
The test system of assay [18] is T47D.
Assay [19] concerns TK-10.
The test system of assay [20] is UO-31.

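A five-concentration, 48-hour dose response in 96-well plates underlies each endpoint, interpolated linearly between surrounding concentrations. The concentration for 50% growth inhibition is given as GI50.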 Active and inactive are the calls of the source. Rule as the data show it: active = GI50 up to about 1.1 µM and inactive = higher.

These results are taken from ChEMBL document CHEMBL1201862, “PubChem BioAssay data set” (2004).

Turning to `Cc1ccc([N+](=O)[O-])cc1S(=O)(=O)Nc1ccc(C2=NN(S(=O)(=O)c3cc([N+](=O)[O-])ccc3C)C(c3cccs3)C2)cc1` (stereo not given), the GI50 – broadly, the concentration giving 50% growth inhibition – in [1] was 32.7 µM (inactive); in [2], 38.6 µM (inactive); in assay [3] it was 44.1 µM (inactive); in [4] it was 9.59 µM (inactive); in assay [5], 29 µM (inactive); in [6], 22.9 µM (inactive). Besides, the GI50 in [7] is 33.2 µM; in assay [8] it was 30.1 µM (inactive); in assay [9] it was 33.7 µM (inactive); in assay [10], 46.3 µM (inactive); in assay [11], 24.2 µM (inactive); in assay [12], 57 µM (inactive). Besides, the GI50 in assay [13] was 52.7 µM (inactive); in assay [14], 26.1 µM (inactive); in assay [15], 21.9 µM (inactive); in assay [16], 65.8 µM (inactive); in assay [17] it was 29 µM (inactive); in assay [18], 21.5 µM (inactive). Further, the results for the GI50 in assay [19] and in assay [20] were 38.6 µM (inactive) and 34.5 µM (inactive), respectively.
In the case of `COC12COC(=O)C1C(c1ccc3c(c1)OCO3)c1cc3c(cc1O2)OCO3` (stereo not given), the GI50 is 16.7 µM (inactive) in assay [1]; 15.6 µM (inactive) in assay [2]; > 73.8 µM (inactive) in [3]; 9.42 µM (inactive) in assay [4]; 37.1 µM (inactive) in assay [5]; 15.6 µM (inactive) in assay [6]. The GI50 in assay [7] is 7.08 µM; in [8], 16 µM (inactive); in assay [9], 37.8 µM (inactive); in assay [10] it was 20.8 µM (inactive); in assay [11] it was 4.21 µM (inactive); in assay [12], 12.8 µM (inactive). For the same molecule, the GI50 in assay [13] is 34.3 µM (inactive); in assay [14], 6.14 µM (inactive); in assay [15], 14.4 µM (inactive); in [16] it was 32.8 µM (inactive); in assay [17] it was 11.2 µM (inactive); in assay [18], 24.2 µM (inactive). Moreover, the GI50 in assay [19] is 29.2 µM (inactive); in assay [20], 28.4 µM (inactive).
On to `O=C1Nc2ccccc2/C1=C\c1c(Cl)[nH]c2ccccc12`, for which the GI50 in [1] is 1.23 µM (inactive); in assay [2] it was 0.832 µM (active); in assay [3], 0.537 µM (active); in assay [4] it was 0.288 µM (active); in [5] it was 1.06 µM (active); in assay [6], 0.416 µM (active). In addition, the GI50 in [7] is 0.608 µM; in assay [8] it was 0.787 µM (active); in [9], 0.48 µM (active); in [10], 0.139 µM (active); in [11], 0.364 µM (active); in [12], 1.07 µM (active). Besides, the GI50 in assay [13] was 3.65 µM (inactive); in assay [14], 0.736 µM (active); in assay [15], 0.589 µM (active); in [16], 0.299 µM (active); in assay [17] it was 0.414 µM (active); in [18], 24 µM (inactive). Also, the figures for the GI50 in assay [19] and in assay [20] were 1.35 µM (inactive) and 1.66 µM (inactive), respectively.
Consider `CCC(Nc1ncnc2nc[nH]c12)C(=O)O` (stereo not given), for which the GI50 in [1], in [2], in [3], in [4], in assay [5] and in assay [6] was > 100 µM (inactive) throughout. Moreover, the GI50 was above 100 µM in assay [7]; > 100 µM (inactive) in [8]; > 100 µM (inactive) in [9]; > 100 µM (inactive) in assay [10]; > 100 µM (inactive) in assay [11]; > 100 µM (inactive) in assay [12]. In addition, the GI50 in assay [13], in assay [14], in assay [15], in assay [16], in assay [17] and in assay [18] was > 100 µM (inactive) throughout. The GI50 in assay [19] and in assay [20] was > 100 µM (inactive) in each case.
In the case of `CC1/C=C/C=C/CC/C=C/C=C/C=C/C=C/C(OC2OC(C)C(O)C(N)C2O)CC2OC(CC(O)C(O)CCC(O)CC(O)CC(O)CC(=O)OC(C)C(C)C1O)CC(O)C2C(=O)O` (stereo not given), the GI50 in assay [1] was 18 µM (inactive); in assay [2] it was 17 µM (inactive); in assay [3], 17.5 µM (inactive); in assay [4] it was 21.8 µM (inactive); in [5], 16.7 µM (inactive); in assay [6], 14.8 µM (inactive). For the same molecule, the GI50 is 27.3 µM in [7]; 19.4 µM (inactive) in assay [8]; 45.6 µM (inactive) in assay [9]; 17.6 µM (inactive) in assay [10]; 34.4 µM (inactive) in [11]; 18.2 µM (inactive) in assay [12]. Moreover, the GI50 in [13] is 13.5 µM (inactive); in assay [14], 19.3 µM (inactive); in assay [15], 22.6 µM (inactive); in [16], 19.7 µM (inactive); in [17] it was 19.7 µM (inactive); in assay [18], 57.1 µM (inactive). The GI50 in assay [19] was 17.5 µM (inactive); in [20] it was 21 µM (inactive).
Regarding `COP(=O)(OC)c1ccc(NCc2cc(O)ccc2O)cc1`, the GI50 in [1] was > 100 µM (inactive); in assay [2] it was 17.9 µM (inactive); in assay [3], 19.2 µM (inactive); in assay [4] it was 27.7 µM (inactive); in assay [5], 23.1 µM (inactive); in assay [6], 23 µM (inactive). Further, the GI50 in [7] is 21.3 µM; in [8], 35.8 µM (inactive); in assay [9], 21.4 µM (inactive); in assay [10] it was 30.3 µM (inactive); in assay [11], 30.5 µM (inactive); in assay [12], 26.3 µM (inactive). The GI50 in [13] is 38.9 µM (inactive); in assay [14], 17.3 µM (inactive); in assay [15] it was 19.5 µM (inactive); in [16] it was 30.2 µM (inactive); in assay [17], 22.1 µM (inactive); in assay [18], 28.8 µM (inactive). The values for the GI50 in assay [19] and in [20] were 23.4 µM (inactive) and 15.5 µM (inactive), respectively.
Consider `O=C(O)c1ccc(Cc2ccccc2C(=O)O)cc1`, for which the GI50 in assay [1], in assay [2], in assay [3], in assay [4], in assay [5] and in assay [6] was > 100 µM (inactive) throughout. Also, the GI50 in assay [7] is above 100 µM; in assay [8] it was > 100 µM (inactive); in [9], > 100 µM (inactive); in assay [10] it was > 100 µM (inactive); in assay [11], > 100 µM (inactive); in assay [12], > 100 µM (inactive). Moreover, the GI50 in assay [13], in assay [14], in assay [15], in assay [16], in assay [17] and in assay [18] was > 100 µM (inactive) throughout. Further, the GI50 in [19] and in assay [20] was > 100 µM (inactive) throughout.
Take `COC(=O)[C@H](Cc1ccccc1)NC(=O)N1CCCN(C(=O)N[C@@H](Cc2ccccc2)C(=O)OC)CCCN(C(=O)N[C@@H](Cc2ccccc2)C(=O)OC)CCC1`: the GI50 is 27.9 µM (inactive) in assay [1]; 31.1 µM (inactive) in [2]; 25.5 µM (inactive) in assay [3]; 18 µM (inactive) in assay [4]; 21.8 µM (inactive) in assay [5]; 18.1 µM (inactive) in assay [6]. For the same molecule, the GI50 is 27.8 µM in [7]; 16.6 µM (inactive) in assay [8]; 16 µM (inactive) in assay [9]; 16.4 µM (inactive) in assay [10]; 61.1 µM (inactive) in assay [11]; 15.3 µM (inactive) in assay [12]. The GI50 in assay [13] is 16.5 µM (inactive); in assay [14], 18.9 µM (inactive); in assay [15], 32.1 µM (inactive); in assay [16], 19.4 µM (inactive); in [17], 19.4 µM (inactive); in assay [18] it was 17.3 µM (inactive). The GI50 in assay [19] was 22.3 µM (inactive); in assay [20] it was 15.9 µM (inactive).
In the case of `CCOC(=O)/C=C(\C(=O)OCC)n1ccc(N)nc1=O`, the GI50 in assay [1] was > 100 µM (inactive); in assay [2] it was 38.6 µM (inactive); in assay [3] it was 37.7 µM (inactive); in assay [4] it was > 100 µM (inactive); in [5] it was 62.8 µM (inactive); in assay [6], > 100 µM (inactive). Also, the GI50 in [7] was above 100 µM; in assay [8], > 100 µM (inactive); in assay [9], 57.4 µM (inactive); in assay [10], > 100 µM (inactive); in [11] it was 67.9 µM (inactive); in [12], 88.7 µM (inactive). Moreover, the GI50 in assay [13] is > 100 µM (inactive); in assay [14], 18.2 µM (inactive); in [15], > 100 µM (inactive); in assay [16], 1.34 µM (inactive); in assay [17], > 100 µM (inactive); in [18], > 100 µM (inactive). Besides, the GI50 in assay [19] and in assay [20] was > 100 µM (inactive) throughout.
For the molecule `Cn1c(=O)cc(Nc2ccc(N)cc2)[nH]c1=O`, the GI50 in assay [1], in [2], in assay [3], in [4], in assay [5] and in assay [6] was > 100 µM (inactive) in each case. Besides, the GI50 was above 100 µM in assay [7]; > 100 µM (inactive) in assay [8]; > 100 µM (inactive) in assay [9]; > 100 µM (inactive) in [10]; > 100 µM (inactive) in assay [11]; > 100 µM (inactive) in assay [12]. Besides, the GI50 in assay [13], in [14], in assay [15], in assay [16], in assay [17] and in assay [18] was > 100 µM (inactive) each time. Also, the GI50 in assay [19] and in [20] was > 100 µM (inactive) each time.
